The record followed here is PubChem BioAssay AID2060505 (Molecular Pharmacology Branch, DTP, NCI, 2025).

pIC50: −log10 of the molar value. Several values for one entry are separate records, joined by “and”; a condition that tells them apart may be missing. Identical values can stand only once.

The subject of this experiment is 633275-114-R-J1-PDC complex spheroids, viability. Put plainly: Anticancer human tumor 633275-114-R-J1-PDC patient-derived endometrial adenocarcinoma cell line growth inhibition [GQUAD]. The conditions noted are these: for viability, T/C: stronger effect = lower value. From the text:
DNA G-quadruplex Stabilizer Agents in Combinations in Complex Spheroids
A high-throughput screen of multi-cell type tumor spheroids was designed to identify active combinations of DNA G-quadruplex stabilizer agents and targeted small molecules. Complex spheroids include a stromal component modeled by human endothelial cells (HUVEC) and fibroblasts modeled by human mesenchymal stem cells (MSCs). The concentration ranges selected for each drug and investigational agent were based upon clinically achievable concentrations if the clinical Cmax of the agent was known.
Compounds. The drugs and investigational agents: pidnarulex (CX-5461; NSC782164), APTO-253 (NSC789042), BRACO-19 (NSC847499), peposertib (NSC802822), ceralasertib (NSC780249), elimusertib (NSC800525), camonsertib (NSC841442), AZD-1390 (NSC803789), olaparib (NSC753686), talazoparib (NSC767125), ART-558 (NSC835418), sotorasib (NSC818433), MRTX-1133 (NSC836407), SN-38 (NSC673596), topotecan (NSC609699), etoposide (NSC141540), doxorubicin (NSC123127), gemcitabine (NSC613327), 5-fluorouracil (NSC19893), paclitaxel (NSC125973), vemurafenib (NSC761431), panobinostat (NSC761190), R-306465 (JNJ-16241199; NSC773264), adavosertib (NSC754352), TP-3654 (NSC805149), carboplatin (NSC241240), KSQ-4279 (NSC840948), and staurosporine (NSC755774) were obtained from the National Cancer Institute (NCI) Developmental Therapeutics Program Chemical Repository (34). The FDA-approved anticancer drug set is available from the NCI Developmental Therapeutics Program. […] The stock solutions were prepared in dimethyl sulfoxide (DMSO, Sigma-Aldrich, St. Louis, MO, cat. D2650) at 800-fold the tested concentration and stored at -70 degrees C prior to their use. All drugs and investigational agents were tested over a range starting from a high concentration at or near the clinical Cmax and decreasing in half-log increments. If the clinical Cmax for an agent had not been determined, the highest concentration tested was 10 microM.
2.3 Cell Culture. All cells were maintained in an incubator at 37 degrees C and 5% CO2 with 95% humidity. The PDC lines were cultured according to standard operating procedures established by the NCI PDMR. All PDCs were thawed and cultured in Matrigel-coated flasks prepared with a working solution of 1X Ham's F-12 nutrient mix, without supplementation (Invitrogen, cat. 11765054), 100 U/mL penicillin-streptomycin (Invitrogen, cat. 15140122), and 2.5% Matrigel (Corning Inc., cat. 354248) for the first three passages. The 857933-349-R-J2-PDC line was cultured in 6C/Colon 1B media, which includes advanced DMEM/F-12 (Thermo Fisher Scientific, cat. 12634028), 10 mM HEPES (Thermo Fisher Scientific, cat. 15630080), 1X GlutaMAX supplement (Thermo Fisher Scientific, cat. 35050061), 0.1 mg/mL primocin (InvivoGen, cat. ant-pm-2), 10% defined fetal bovine serum, heat inactivated (HyClone Laboratories Inc., cat. SH30070.03HI), 50% L-WRN conditioned media (ATCC, cat. CRL-3276), 1.25 mM N-Acetyl-L-cysteine (Sigma-Aldrich, cat. A9165), 10 mM nicotinamide (Sigma-Aldrich, cat. N0636), 1X B-27 supplement (Thermo Fisher Scientific, cat. 17504044), 1X N-2 supplement (Thermo Fisher Scientific, cat. 17502048), 10 microM Y-27632 dihydrochloride (Tocris Bioscience, cat. 1254), and 50 ng/mL human EGF recombinant protein (Thermo Fisher Scientific, cat. PHG0311). The 485176-168-R4-J1-PDC line was cultured in Panc media, which includes all 6C/Colon 1B media components plus 100 ng/mL human FGF-10 (Thermo Fisher Scientific, cat. 100-26), 500 nM SB-431542 (Selleckchem, cat. S1067), and gastrin (Tocris, cat. 3006).
[…]
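Further: spheroids exposed to the agents for seven days.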
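Wherever viability, T/C is given: percent of DMSO vehicle control viability which is 100%.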

With `Cc1cnc(CNC(=O)c2c(=O)c3ccc(N4CCCN(C)CC4)nc3n3c2sc2ccccc23)cn1`, the viability, T/C reads like this: (compound 0.0316 µM) 66.5% [middle of 12 runs]; (compound 0.1 µM) 51.1% [middle of 12 runs]; (compound 0.316 µM) 46.2% [middle of 11 runs]; (compound 1 µM) 41.8% [middle of 12 runs]; (compound 3.16 µM) 39% [middle of 12 runs]; (compound 10 µM) 33.2% [middle of 12 runs]. Besides, the half-inhibitory concentration (IC50) (compound alone, run of 03/18/2024) is 187 nM [middle of 12 runs].
Take `CC1COCCN1c1cc(-c2ccnn2C)c2ccnc(-c3ccn[nH]3)c2n1` (stereo not given): the viability, T/C runs as follows: (compound 0.0316 µM) 81% and 83.4% and 86.5%; (compound 0.1 µM) 59.5% and 53.2% and 55.1%; (compound 0.316 µM) 38.6% and 39.2% and 35.8%; (compound 1 µM) 26.8% and 24.3% and 27.8%; (compound 3.16 µM) 19.3% (2×) and 20.4%; (compound 10 µM) 18% and 15.8% and 15.7%. Further, the pIC50 (curve of compound) was 6.77 and 6.86 and 6.85.
Turning to `COc1cc(C2c3cc4c(cc3C(OC3OC5COC(C)OC5C(O)C3O)C3COC(=O)C23)OCO4)cc(OC)c1O` (stereo not given), the viability, T/C by setting is: (compound 0.0316 µM) 90.9% and 82.6% and 84.5%; (compound 0.1 µM) 71.1% and 64.9% and 66.1%; (compound 0.316 µM) 50.1% and 51.4% and 46.9%; (compound 1 µM) 44.4% and 42.1% and 49.9%; (compound 3.16 µM) 38.2% (2×) and 36.1%; (compound 10 µM) 32.7% and 30.8% and 28.3%. Where the note is “curve of compound”, the pIC50 is 6.35 and 6.42 and 6.33.
As for `CCc1c2c(nc3ccc(O)cc13)-c1cc3c(c(=O)n1C2)COC(=O)[C@]3(O)CC`, the viability, T/C (compound 0.000999 µM) is 72.9% and 83.1% and 65.5%; the viability, T/C (compound 0.00316 µM) was 47.6% and 49.1% and 47%; the viability, T/C (compound 0.00999 µM) was 36.6% and 36.4% and 38.1%; the viability, T/C (compound 0.0316 µM) is 32.8% and 34.7% and 35.9%; the viability, T/C (compound 0.0999 µM) is 30% and 24.7% and 28.8%; the viability, T/C (compound 0.316 µM) was 23.7% (2×) and 24.4%. In addition, under “curve of compound”, the pIC50 is 8.52 and 8.46 and 8.53.
Regarding `CC(C)n1c(=O)n(C)c2cnc3cc(F)c(-c4ccc(OCCCN5CCCCC5)nc4)cc3c21` + CN(C)c1ccc(Nc2c3ccc(NC(=O)CCN4CCCC4)cc3nc3cc(NC(=O)CCN4CCCC4)ccc23)cc1, the pIC50 was under 5.00 (curve of first compound, second compound 0.0316 µM); under 5.00 (curve of first compound, second compound 0.1 µM); under 5.00 (curve of first compound, second compound 0.316 µM); under 5.00 (curve of first compound, second compound 1 µM); 5.59 (curve of first compound, second compound 3.16 µM); over 7.50 (curve of first compound, second compound 10 µM). For the same compound, the viability, T/C is 115% (second compound 0.0316 µM, first compound 0.0316 µM); 109% (second compound 0.0316 µM, first compound 0.1 µM); 102% (second compound 0.0316 µM, first compound 0.316 µM); 109% (second compound 0.0316 µM, first compound 1 µM); 102% (second compound 0.0316 µM, first compound 3.16 µM); 67.9% (second compound 0.0316 µM, first compound 10 µM). Moreover, the viability, T/C by setting is: (second compound 0.1 µM, first compound 0.0316 µM) 102%; (second compound 0.1 µM, first compound 0.1 µM) 115%; (second compound 0.1 µM, first compound 0.316 µM) 98.2%; (second compound 0.1 µM, first compound 1 µM) 97.4%; (second compound 0.1 µM, first compound 3.16 µM) 97.4%; (second compound 0.1 µM, first compound 10 µM) 65.1%. Further, the viability, T/C is, setting by setting: (second compound 0.316 µM, first compound 0.0316 µM) 102%; (second compound 0.316 µM, first compound 0.1 µM) 104%; (second compound 0.316 µM, first compound 0.316 µM) 98.7%; (second compound 0.316 µM, first compound 1 µM) 101%; (second compound 0.316 µM, first compound 3.16 µM) 86.1%; (second compound 0.316 µM, first compound 10 µM) 70.7%. Besides, the viability, T/C is, setting by setting: (second compound 1 µM, first compound 0.0316 µM) 99.8%; (second compound 1 µM, first compound 0.1 µM) 98.3%; (second compound 1 µM, first compound 0.316 µM) 113%; (second compound 1 µM, first compound 1 µM) 78.4%; (second compound 1 µM, first compound 3.16 µM) 85.1%; (second compound 1 µM, first compound 10 µM) 63.5%. Also, the viability, T/C was 84.4% (second compound 3.16 µM, first compound 0.0316 µM); 81.2% (second compound 3.16 µM, first compound 0.1 µM); 60.4% (second compound 3.16 µM, first compound 0.316 µM); 64.5% (second compound 3.16 µM, first compound 1 µM); 50.3% (second compound 3.16 µM, first compound 3.16 µM); 32.3% (second compound 3.16 µM, first compound 10 µM). For the same compound, the viability, T/C was 29% (second compound 10 µM, first compound 0.0316 µM); 28.8% (second compound 10 µM, first compound 0.1 µM); 22.1% (second compound 10 µM, first compound 0.316 µM); 21.5% (second compound 10 µM, first compound 1 µM); 17.9% (second compound 10 µM, first compound 3.16 µM); 9.88% (second compound 10 µM, first compound 10 µM).

Broadly, the viability, T/C is the ratio of treated to control. As usually defined, the IC50 is the midpoint of a concentration-inhibition curve. By pIC50 is commonly meant the IC50 on a negative log10 scale, so that one unit is a factor of ten.
